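Growth conditions: 96-well plates. Treatment: test compound, 48 hours, 5 concentrations. Analysis: linear interpolation between bracketing concentrations; unreached endpoints set to highest concentration. GI50 is the concentration that inhibits growth by half.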 Calls of active or inactive are those of the source. Cut-off read from the data, not from the text of the source: active = GI50 up to about 1.1 µM and inactive = higher.
Legend:
Assay in all cases: DTP human tumour cell line panel, 48 h
HOP-18 = system: HOP-18
KM-20L2 = system: KM-20L2
M19-MEL = system: M19-MEL
DMS-273 = system: DMS-273
DMS-114 = system: DMS-114
SNB-78 = system: SNB-78
XF498 = system: XF498
RXF 631 = system: RXF 631
LXFL 529 = system: LXFL 529

Measured: GI50

COc1ccc2[nH]c3c(C)c4cc[n+](C)cc4c(C)c3c2c1
active: M19-MEL 0.661 µM | DMS-273 0.838 µM | DMS-114 0.219 µM | SNB-78 0.406 µM
inactive: HOP-18 3.95 µM | KM-20L2 3.3 µM

C#CCC1(C(=O)OCC)C(=O)c2ccccc2N(C)C1=O (stereo unspecified)
inactive: HOP-18 > 100 µM | XF498 26.7 µM | RXF 631 > 100 µM | KM-20L2 > 100 µM | M19-MEL > 100 µM | LXFL 529 > 100 µM | DMS-273 > 100 µM | DMS-114 > 100 µM | SNB-78 > 100 µM

COc1ccc(Cc2c3cc(OC)c(OC)cc3cc[n+]2C)cc1
inactive: HOP-18 > 27.9 µM | XF498 4.99 µM | RXF 631 > 10.3 µM | KM-20L2 10.3 µM | M19-MEL 12.6 µM | LXFL 529 3.18 µM | DMS-273 2.22 µM | DMS-114 2.82 µM | SNB-78 58.1 µM

O=c1c2cc3c(=O)n(CCc4ccccc4CO)c(=O)c3cc2c(=O)n1CCc1ccccc1CO
inactive: XF498 > 100 µM | M19-MEL > 100 µM | LXFL 529 > 100 µM | DMS-273 > 100 µM | DMS-114 > 100 µM | SNB-78 > 100 µM

O=C(/C=C/c1ccc([N+](=O)[O-])cc1)c1ccc(NCc2nc3ccccc3[nH]2)cc1
inactive: HOP-18 16.4 µM | XF498 6.17 µM | RXF 631 3.49 µM | KM-20L2 3.98 µM | M19-MEL 3.94 µM | LXFL 529 2.9 µM | DMS-273 3.05 µM | DMS-114 1.91 µM | SNB-78 5.81 µM

COC(=O)[C@H]1N[C@@H](C(=O)OC)C23CCC[C@H]2CC[C@]1(C(OC)OC)C3
inactive: HOP-18 > 100 µM | XF498 > 100 µM | KM-20L2 > 100 µM | M19-MEL > 100 µM | LXFL 529 > 100 µM | DMS-273 > 100 µM | DMS-114 > 100 µM | SNB-78 > 100 µM

COC(=O)c1ccccc1NC(=O)C(=O)CC(=O)CC(c1ccccc1)c1c(O)c2ccccc2oc1=O (stereo unspecified)
inactive: RXF 631 > 100 µM | KM-20L2 > 100 µM | M19-MEL > 100 µM | DMS-114 > 100 µM

N=C(Nc1nc(-c2ccccn2)cc2ccccc12)c1ccccn1
active: HOP-18 0.301 µM | XF498 0.00407 µM | RXF 631 0.01 µM | M19-MEL 0.232 µM | LXFL 529 0.00242 µM | DMS-273 0.00512 µM | DMS-114 0.00108 µM
inactive: SNB-78 3.33 µM

CCC(C)CN1C(=O)NC(Cc2ccccc2)C1=O (stereo unspecified)
active: HOP-18 0.119 µM
inactive: XF498 > 100 µM | KM-20L2 > 100 µM | M19-MEL > 100 µM | LXFL 529 > 100 µM | DMS-273 > 100 µM | DMS-114 > 100 µM | SNB-78 > 100 µM

COc1cccc(/C=N/[N-]C(=S)Nc2ccccc2)c1[O-].O.[Zn+2]
inactive: HOP-18 > 100 µM | XF498 23.2 µM | KM-20L2 40.3 µM | M19-MEL 60 µM | LXFL 529 68.5 µM | DMS-114 15.4 µM | SNB-78 40.1 µM

Cc1cccc(C(=O)c2cccc3ccccc23)c1C(=O)O
inactive: HOP-18 50.9 µM | XF498 > 100 µM | RXF 631 > 100 µM | KM-20L2 > 100 µM | M19-MEL > 100 µM | LXFL 529 > 100 µM | DMS-273 > 100 µM | DMS-114 3.24 µM | SNB-78 > 100 µM

COc1cccc2c1C(=O)c1c(O)c3c(c(O)c1C2=O)CC(O)(C(O)CO)CC3OC1CC(N2CCOCC2)C(O)C(C)O1 (stereo unspecified)
active: HOP-18 < 0.001 µM | XF498 0.0168 µM | RXF 631 < 0.001 µM | KM-20L2 0.0267 µM | M19-MEL 0.0146 µM | LXFL 529 0.0124 µM | DMS-273 < 0.001 µM | DMS-114 0.018 µM | SNB-78 0.0106 µM

CC(C)=CC(=O)Cc1nc2ccccc2[nH]c1=O
inactive: HOP-18 37 µM | RXF 631 > 100 µM | KM-20L2 > 100 µM | M19-MEL > 100 µM | LXFL 529 > 100 µM | DMS-273 > 100 µM | SNB-78 > 100 µM

CC12C(=CC(=O)CC1SCCS(=O)(=O)O)C(C#N)=C(N)N2c1ccc(Cl)c(Cl)c1 (stereo unspecified)
inactive: KM-20L2 > 100 µM | M19-MEL > 100 µM | LXFL 529 > 100 µM | DMS-273 > 100 µM | DMS-114 > 100 µM | SNB-78 > 100 µM

C=C=CC(NC(=O)c1ccccc1)(C(=O)O)C(F)(F)F (stereo unspecified)
inactive: HOP-18 > 100 µM | XF498 > 100 µM | RXF 631 > 100 µM | LXFL 529 > 100 µM | DMS-273 > 100 µM | DMS-114 > 100 µM | SNB-78 > 100 µM

Nc1nc(N)c2nc(-c3ccco3)cnc2n1
inactive: HOP-18 27.6 µM | XF498 > 100 µM | RXF 631 36 µM | KM-20L2 69.2 µM | M19-MEL > 100 µM | LXFL 529 64.1 µM | DMS-114 38.8 µM | SNB-78 > 100 µM

CCOC(=O)C(=O)NCCCN1CCOCC1
inactive: HOP-18 > 100 µM | XF498 > 100 µM | RXF 631 > 100 µM | KM-20L2 > 100 µM | M19-MEL > 100 µM | LXFL 529 > 100 µM | DMS-273 > 100 µM | DMS-114 > 100 µM | SNB-78 > 100 µM

Nc1nc(SCc2ccccc2Cl)c2[nH]cnc2n1
inactive: KM-20L2 > 100 µM | M19-MEL > 100 µM | LXFL 529 62.1 µM | DMS-273 41 µM | DMS-114 40.8 µM | SNB-78 > 100 µM

O=C(O)[C@@H](NS(=O)(=O)c1ccc(F)cc1)c1ccccc1
inactive: HOP-18 > 100 µM | XF498 > 100 µM | KM-20L2 > 100 µM | M19-MEL > 100 µM | LXFL 529 > 100 µM | DMS-273 > 100 µM | DMS-114 > 100 µM | SNB-78 > 100 µM

O=C(Nc1ccc(Cl)cc1Cl)/C(Cl)=C1/Sc2ccccc2NC1=O
inactive: XF498 1.32 µM | KM-20L2 61.9 µM | M19-MEL 37.8 µM | LXFL 529 22.2 µM | DMS-114 20.1 µM | SNB-78 44.9 µM

C/C(CCn1[nH]c(=O)ccc1=O)=N\NC(=O)C(=O)NN
inactive: HOP-18 > 100 µM | XF498 > 100 µM | RXF 631 > 100 µM | KM-20L2 > 100 µM | M19-MEL > 100 µM | LXFL 529 > 100 µM | DMS-273 > 100 µM

C=CCc1cc(OC)c2c(c1)C(OC(C)=O)CC(c1ccc(OC)c(OC)c1)O2 (stereo unspecified)
inactive: KM-20L2 > 100 µM | M19-MEL > 100 µM | LXFL 529 > 100 µM | DMS-273 > 100 µM | DMS-114 > 100 µM | SNB-78 > 100 µM

Cc1c(/C=N/N(C)C)oc2c1cc(O)c1ncccc12
inactive: HOP-18 1.77 µM | XF498 8.38 µM | KM-20L2 34.5 µM | LXFL 529 7.98 µM | DMS-273 5.31 µM | DMS-114 2.87 µM

C=C(N=[N+]=[N-])c1cn(C2CC(O)C(CO)O2)c(=O)[nH]c1=O (stereo unspecified)
inactive: HOP-18 > 100 µM | XF498 > 100 µM | KM-20L2 > 100 µM | M19-MEL > 100 µM | LXFL 529 > 100 µM | DMS-273 > 100 µM | DMS-114 > 100 µM | SNB-78 > 100 µM
